Holding throughout (assay type): cell-based
The test system of assay [1] is Aβ-40. Put plainly: Aβ-40 MSD 3-plex ELISA, conditioned media of 2B7 cells. To be noted: Homo sapiens, 5 hours treatment. Put shortly: (§1)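 Confluent 2B7 cells treated 5 h at 37 °C with compound in media containing 1% DMSO. Conditioned media diluted 1:1 in blocking buffer and assayed on 6E10 Aβ 3-plex MSD plates against standard curves. Percent-vehicle values fitted to dose-response curves to give IC50.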
(In an ELISA, binding on a coated surface is turned into a signal by an enzyme label.)

Assay [2] has as its system Aβ-42. Description: Aβ-42 MSD 3-plex ELISA, conditioned media of 2B7 cells. The conditions noted are these: Homo sapiens, 5 hours treatment. The method in brief: as §1
In assay [3] the test system is Notch processing (NICD). Description: Notch assay: NICD appearance in SUP-T1 cells (western blot). The conditions noted are these: 18 hours. On the procedure: The methods for this assay are broken up into two parts. 1) Growing, dosing and lysing cells 2) Measuring Notch processing (NICD appearance) and data manipulation. Cell viability is also described (CTG). SUP-T1 cells were cultured in T75 flasks in RPMI media (Mediatech 10-041-CV) supplemented with 10% FBS and penicillin/streptomycin at 37° C. in a 5% CO2 atmosphere. One hour prior to drug treatment six well plates were seeded with 1.5 mL of media with cells at a density of 1.0×10^6 cells/mL. The DMSO serial dilutions were diluted 100 fold directly into the media with the cells and incubated for 18 hours at 37° C. After treatment 100 μL of treated cells were assayed for viability with the Promega Cell Titer Glo assay system. […] Lysates were spun at 5,000 RPM for 5 minutes and supernatants were collected and analyzed for NICD levels. […] To account for loading discrepancies each NICD band was normalized to the alpha tubulin band in that well. These values were then normalized to vehicle levels and used to plot a dose response curve. IC50 values were obtained from the dose response curves using a four parameter fit method available within Prism's GraphPad graphing suite. Luminescent data from Promega's Cell Titre Glo assay system were normalized to vehicle controls and plotted with NICD levels.

The test system of assay [4] is Aβ-38. Description: Aβ-38 MSD 3-plex ELISA, conditioned media of 2B7 cells. The conditions noted are these: Homo sapiens, 5 hours treatment, read-out: Aβ 38 IC50. The method in brief:
as §1

Where [5] appears, read: inflection of dose response curve, read-out: Aβ 40 DR IC50 Inflection.
Where [6] appears, read: inflection of dose response curve, read-out: Aβ 42 DR IC50 Inflection.

pIC50: −log10 of the molar value. Where two headings read alike, the source gives them in different places.

`CCO[C@@H]([C@H]1C[C@@H](C)[C@H]2[C@H](O1)[C@H](O)[C@@]1(C)[C@@H]3CC[C@H]4C(C)(C)[C@@H](O[C@H]5CN(CCN6CCC6)CCO5)CC[C@@]45C[C@@]35CC[C@]21C)C(C)(C)O` [Compound I-57]: the negative-log IC50 (pIC50) (usually the IC50 on a negative log10 scale, so that one unit is a factor of ten) is 5.30 to 6.00 in assay [1] (setting [5]); 5.30 to 6.00 in assay [1] (read-out: Aβ 40 IC50); greater than 7.00 in assay [2] (setting [6]); 6.30 to 7.00 in assay [2] (read-out: Aβ 42 IC50); 6.30 to 7.00 in assay [4]. Also, the inhibition – broadly, how much of the control response was suppressed – at 5 µM in assay [3] (Homo sapiens, Notch inhib conc class E (>5000 nM)) lay in the range of 0 to 25%.
For `CCO[C@@H]([C@H]1C[C@@H](C)[C@H]2[C@H](O1)[C@H](O)[C@@]1(C)[C@@H]3CC[C@H]4C(C)(C)[C@@H](O[C@H]5CN(CCN(C)CCOC)CCO5)CC[C@@]45C[C@@]35CC[C@]21C)C(C)(C)O` [Compound I-61], the pIC50 in assay [1] (setting [5]) was 5.30 to 6.00; in assay [1] (read-out: Aβ 40 IC50), 5.30 to 6.00; in assay [2] (setting [6]), 6.30 to 7.00; in assay [2] (read-out: Aβ 42 IC50) it was 6.30 to 7.00; in assay [4] it was 6.00 to 6.30. In addition, the Notch % inhib result in assay [3] (Notch inhib conc class D (1001-5000 nM)) was “A (A is range from 0-25%)”.

For the origin of these results see US20130060020A1, “Compounds useful for treating neurodegenerative disorders” (Satori Pharmaceuticals, Inc., priority 2011, published 2013).
